Data: patent publication US5292733A, “Cephalosporin compounds” (Lucky Limited, priority 1991, dated 1994)
Values after ≈ are worked out from the molar mass of the structure shown.

How the values were obtained:
Assay in all cases: Antibacterial activity MIC, two-fold agar dilution
Format in all cases: cell-based
[1] = tested on: Enterobacter cloacae ATCC 27508; settings: Enterobacter cloacae ATCC 27508, Muller-Hinton agar, 37° C., 20 hours; for MIC: ATCC27508, read-out: Antibacterial Activity MIC
Procedure: (§1) These MIC values were taken by employing a two-fold dilution method: that is, two-fold serial dilutions of each of the test compounds were made and dispersed in a Muller-Hinton agar medium; 2 μl of the standard test strain which had the 10^7 CFU(Colony Forming Unit) per ml was inoculated on the medium; and these were incubated at 37° C. for 20 hours. The results of the MIC tests are shown Table 1.

[2] = tested on: Staphylococcus epidermidis ATCC 12228; settings: Staphylococcus epidermidis ATCC 12228, Muller-Hinton agar, 37° C., 20 hours; for MIC: ATCC12228, read-out: Antibacterial Activity MIC
Procedure: as §1

[3] = tested on: Serratia marcescens ATCC 27117; settings: Serratia marcescens ATCC 27117, Muller-Hinton agar, 37° C., 20 hours; for MIC: ATCC27117, read-out: Antibacterial Activity MIC
Procedure: as §1

[4] = tested on: Pseudomonas aeruginosa ATCC 25619; settings: Pseudomonas aeruginosa ATCC 25619, Muller-Hinton agar, 37° C., 20 hours; for MIC: ATCC25619, read-out: Antibacterial Activity MIC
Procedure: as §1

[5] = tested on: Salmonella typhimurium ATCC 14028; settings: Salmonella typhimurium ATCC 14028, Muller-Hinton agar, 37° C., 20 hours; for MIC: Salmonella enterica, read-out: Antibacterial Activity MIC
Procedure: as §1

[6] = tested on: Streptococcus faecalis ATCC 29212; settings: Streptococcus faecalis ATCC 29212, Muller-Hinton agar, 37° C., 20 hours; for MIC: Enterococcus faecalis, ATCC29212, read-out: Antibacterial Activity MIC
Procedure: as §1

[7] = tested on: Shigella sonnei ATCC 11060; settings: 37° C., 20 hours; for MIC: ATCC11060, Muller-Hinton agar
Procedure: as §1

[8] = tested on: Klebsiella pneumoniae ATCC 10031; settings: Klebsiella pneumoniae ATCC 10031, Muller-Hinton agar, 37° C., 20 hours; for MIC: ATCC10031, read-out: Antibacterial Activity MIC
Procedure: as §1

[9] = tested on: Bacillus megaterium ATCC 9885; settings: Bacillus megaterium ATCC 9885, Muller-Hinton agar, 37° C., 20 hours; for MIC: Priestia megaterium, ATCC9885, read-out: Antibacterial Activity MIC
Procedure: as §1

[10] = tested on: Acinetobacter calcoaceticus ATCC 15473; settings: Acinetobacter calcoaceticus ATCC 15473, Muller-Hinton agar, 37° C., 20 hours; for MIC: ATCC15473, read-out: Antibacterial Activity MIC
Procedure: as §1

[11] = tested on: Staphylococcus aureus ATCC 10537; settings: Staphylococcus aureus ATCC 10537, Muller-Hinton agar, 37° C., 20 hours; for MIC: ATCC10537, read-out: Antibacterial Activity MIC
Procedure: as §1

[12] = tested on: Bacillus cereus ATCC 11778; settings: Bacillus cereus ATCC 11778, Muller-Hinton agar, 37° C., 20 hours; for MIC: ATCC11778, read-out: Antibacterial Activity MIC
Procedure: as §1

[13] = tested on: Proteus vulgaris ATCC 6059; settings: Proteus vulgaris ATCC 6059, Muller-Hinton agar, 37° C., 20 hours; for MIC: ATCC6059, read-out: Antibacterial Activity MIC
Procedure: as §1

[14] = tested on: Pseudomonas aeruginosa ATCC 10145; settings: Pseudomonas aeruginosa ATCC 10145, Muller-Hinton agar, 37° C., 20 hours; for MIC: ATCC10145, read-out: Antibacterial Activity MIC
Procedure: as §1

[15] = tested on: Micrococcus luteus ATCC 9341; settings: Micrococcus luteus ATCC 9341, Muller-Hinton agar, 37° C., 20 hours; for MIC: ATCC9341, read-out: Antibacterial Activity MIC
Procedure: as §1

[16] = tested on: Escherichia coli ATCC 10536; settings: 37° C., 20 hours; for MIC: ATCC10536, Muller-Hinton agar
Procedure: as §1

[17] = tested on: Morganella morganii ATCC 8076h; settings: Muller-Hinton agar, 37° C., 20 hours; for MIC: ATCC8076H
Procedure: as §1

[18] = tested on: Escherichia coli ATCC 25922; settings: 37° C., 20 hours; for MIC: ATCC25922, Muller-Hinton agar
Procedure: as §1

[19] = tested on: Staphylococcus aureus ATCC 6538p; settings: Staphylococcus aureus ATCC 6538p, Muller-Hinton agar, 37° C., 20 hours; for MIC: ATCC6538P, read-out: Antibacterial Activity MIC
Procedure: as §1

[20] = tested on: Proteus mirabilis ATCC 25933; settings: Proteus mirabilis ATCC 25933, Muller-Hinton agar, 37° C., 20 hours; for MIC: ATCC25933, read-out: Antibacterial Activity MIC
Procedure: as §1

[21] = tested on: Pseudomonas aeruginosa ATCC 27853; settings: Pseudomonas aeruginosa ATCC 27853, Muller-Hinton agar, 37° C., 20 hours; for MIC: ATCC27853, read-out: Antibacterial Activity MIC
Procedure: as §1

[22] = tested on: Shigella flexneri ATCC 11836; settings: 37° C., 20 hours; for MIC: ATCC11836, Muller-Hinton agar
Procedure: as §1

[23] = tested on: Enterobacter aerogenes ATCC 29751; settings: Enterobacter aerogenes ATCC 29751, Muller-Hinton agar, 37° C., 20 hours; for MIC: Klebsiella aerogenes, ATCC29751, read-out: Antibacterial Activity MIC
Procedure: as §1

[24] = tested on: Citrobacter freundii ATCC 8090; settings: Citrobacter freundii ATCC 8090, Muller-Hinton agar, 37° C., 20 hours; for MIC: ATCC8090, read-out: Antibacterial Activity MIC
Procedure: as §1

[25] = tested on: Providencia rettgeri ATCC 9250; settings: 37° C., 20 hours; for MIC: ATCC9250, Muller-Hinton agar
Procedure: as §1

Work on `CC[n+]1c(N)cc(SCC2=C(C(=O)[O-])N3C(=O)[C@@H](NC(=O)/C(=N\OC(C)C(=O)O)c4csc(N)n4)[C@H]3SC2)nc1N` (stereo partly drawn) [Compound I-20, (6R,7R)-7-[(Z)-2-(2-aminothiazol-4-yl)-2-(R,S-carboxyeth-1-oxyimino)acetamido]-3-(2,6-diamino-1-ethylprimidinium-4-yl)thiomethyl-3cephem-4-carboxylate] yielded an MIC [1] of 0.016 µg/mL (≈ 0.0257 µM), an MIC [2] of 4 µg/mL (≈ 6.41 µM) and an MIC [3] of 0.25 µg/mL (≈ 0.401 µM). It also gave an MIC [4] of 1 µg/mL (≈ 1.6 µM), an MIC [5] of 0.5 µg/mL (≈ 0.802 µM) and an MIC [6] of 128 µg/mL (≈ 205 µM). For the same compound, the MIC [7] was 0.5 µg/mL (≈ 0.802 µM), the MIC [8] was 0.063 µg/mL (≈ 0.101 µM) and the MIC [9] was 0.25 µg/mL (≈ 0.401 µM). For the same compound, the MIC [10] was 8 µg/mL (≈ 12.8 µM), the MIC [11] was 4 µg/mL (≈ 6.41 µM) and the MIC [12] was 128 µg/mL (≈ 205 µM). The MIC [13] was 0.25 µg/mL (≈ 0.401 µM), the MIC [14] was 4 µg/mL (≈ 6.41 µM) and the MIC [15] was 0.25 µg/mL (≈ 0.401 µM). For the same compound, the MIC [16] was 0.13 µg/mL (≈ 0.208 µM), the MIC [17] was no more than 0.008 µg/mL and the MIC [18] was 0.13 µg/mL (≈ 0.208 µM). It also gave an MIC [19] of 2 µg/mL (≈ 3.21 µM), an MIC [20] of 0.063 µg/mL (≈ 0.101 µM) and an MIC [21] of 2 µg/mL (≈ 3.21 µM). It also gave an MIC [22] of 0.016 µg/mL (≈ 0.0257 µM), an MIC [23] of 1 µg/mL (≈ 1.6 µM) and an MIC [24] of 0.13 µg/mL (≈ 0.208 µM). For the same compound, the MIC [25] was no more than 0.008 µg/mL.
Compound `C#CCO/N=C(\C(=O)N[C@@H]1C(=O)N2C(C(=O)[O-])=C(CSc3cc(N)[n+](C)c(N)n3)CS[C@H]12)c1csc(N)n1` [Compound I-14, (6R,7R)-7-[(Z)-2-(2-aminothiazol-4-yl)-2-(2-propyn-1-oxyimino)acetamido]-3-(2,6-diamino-1-methylpyrimidinium-4-yl)thiomethyl-3-cephem-4-carboxylate] has an MIC [1] of 0.016 µg/mL (≈ 0.0278 µM), an MIC [2] of 0.25 µg/mL (≈ 0.434 µM) and an MIC [3] of 0.5 µg/mL (≈ 0.869 µM). For the same compound, the MIC [4] was 1 µg/mL (≈ 1.74 µM), the MIC [5] was 0.25 µg/mL (≈ 0.434 µM) and the MIC [6] was 16 µg/mL (≈ 27.8 µM). It also gave an MIC [7] of 0.5 µg/mL (≈ 0.869 µM), an MIC [8] of 0.016 µg/mL (≈ 0.0278 µM) and an MIC [9] of 0.25 µg/mL (≈ 0.434 µM). For the same compound, the MIC [10] was 8 µg/mL (≈ 13.9 µM), the MIC [11] was 0.5 µg/mL (≈ 0.869 µM) and the MIC [12] was 64 µg/mL (≈ 111 µM). The MIC [13] was 1 µg/mL (≈ 1.74 µM), the MIC [14] was 8 µg/mL (≈ 13.9 µM) and the MIC [15] was 0.031 µg/mL (≈ 0.0539 µM). For the same compound, the MIC [16] was 0.5 µg/mL (≈ 0.869 µM), the MIC [17] was 0.016 µg/mL (≈ 0.0278 µM) and the MIC [18] was 0.25 µg/mL (≈ 0.434 µM). The MIC [19] was 0.5 µg/mL (≈ 0.869 µM), the MIC [20] was 1 µg/mL (≈ 1.74 µM) and the MIC [21] was 4 µg/mL (≈ 6.95 µM). The MIC [22] was 0.063 µg/mL (≈ 0.109 µM), the MIC [23] was 0.5 µg/mL (≈ 0.869 µM) and the MIC [24] was 0.25 µg/mL (≈ 0.434 µM). The MIC [25] was no more than 0.008 µg/mL.
“(6R,7R)-7-[(Z)-2-(5-aminothiazol-4-yl)-2-(2-propyn-1-oxyimino)acetamido]-3-(2,6-diamino-1-methylpyrimidinium-4-yl)thiomethyl-3-cephem-4-carboxylate [Compound I-16]” was tested, and the “Antibacterial Activity MIC” value [1] was 0.063 µg/mL, the “Antibacterial Activity MIC” value [2] was 0.25 µg/mL and the “Antibacterial Activity MIC” value [3] was 2 µg/mL. The “Antibacterial Activity MIC” value [4] was 2 µg/mL, the “Antibacterial Activity MIC” value [5] was 1 µg/mL and the “Antibacterial Activity MIC” value [6] was 32 µg/mL. The “Antibacterial Activity MIC” value ([7]; Muller-Hinton agar) was 0.5 µg/mL, the “Antibacterial Activity MIC” value [8] was 0.016 µg/mL and the “Antibacterial Activity MIC” value [9] was 0.25 µg/mL. For the same compound, the “Antibacterial Activity MIC” value [10] was 8 µg/mL, the “Antibacterial Activity MIC” value [11] was 0.5 µg/mL and the “Antibacterial Activity MIC” value [12] was 64 µg/mL. For the same compound, the “Antibacterial Activity MIC” value [13] was 1 µg/mL, the “Antibacterial Activity MIC” value [14] was 8 µg/mL and the “Antibacterial Activity MIC” value [15] was 0.031 µg/mL. For the same compound, the “Antibacterial Activity MIC” value ([16]; Muller-Hinton agar) was 0.5 µg/mL, the “Antibacterial Activity MIC” value [17] was 0.016 µg/mL and the “Antibacterial Activity MIC” value ([18]; Muller-Hinton agar) was 0.5 µg/mL. For the same compound, the “Antibacterial Activity MIC” value [19] was 0.5 µg/mL, the “Antibacterial Activity MIC” value [20] was 1 µg/mL and the “Antibacterial Activity MIC” value [21] was 4 µg/mL. For the same compound, the “Antibacterial Activity MIC” value ([22]; Muller-Hinton agar) was 0.25 µg/mL, the “Antibacterial Activity MIC” value [23] was 1 µg/mL and the “Antibacterial Activity MIC” value [24] was 0.25 µg/mL. For the same compound, the “Antibacterial Activity MIC” value ([25]; Muller-Hinton agar) was “<= 0.008 μg/ml”.
For `CC[n+]1c(SCC2=C(C(=O)[O-])N3C(=O)[C@@H](NC(=O)/C(=N\OC(C)(C)C(=O)O)c4csc(N)n4)[C@H]3SC2)cc(N)nc1N` [Compound I-2, (6R,7R)-7-[(Z)-2-(2-aminothiazol-4-yl)-2-(carboxyprop-2-oxyimino)acetamido]-3-(2,6-diamino-3-ethylpyrimidinium-4-yl)thiomethyl-3-cephem-4-carboxylate], the MIC [1] was 0.016 µg/mL (≈ 0.0251 µM), the MIC [2] was 1 µg/mL (≈ 1.57 µM) and the MIC [3] was 0.13 µg/mL (≈ 0.204 µM). The MIC [4] was 1 µg/mL (≈ 1.57 µM), the MIC [5] was 0.5 µg/mL (≈ 0.784 µM) and the MIC [6] was greater than 128 µg/mL. For the same compound, the MIC [7] was 0.25 µg/mL (≈ 0.392 µM), the MIC [8] was 0.031 µg/mL (≈ 0.0486 µM) and the MIC [9] was 0.25 µg/mL (≈ 0.392 µM). It also gave an MIC [10] of 4 µg/mL (≈ 6.27 µM), an MIC [11] of 4 µg/mL (≈ 6.27 µM) and an MIC [12] of 64 µg/mL (≈ 100 µM). It also gave an MIC [13] of 0.13 µg/mL (≈ 0.204 µM), an MIC [14] of 1 µg/mL (≈ 1.57 µM) and an MIC [15] of 0.5 µg/mL (≈ 0.784 µM). It also gave an MIC [16] of 0.063 µg/mL (≈ 0.0988 µM), an MIC [17] of no more than 0.008 µg/mL and an MIC [18] of 0.063 µg/mL (≈ 0.0988 µM). The MIC [19] was 4 µg/mL (≈ 6.27 µM), the MIC [20] was 0.31 µg/mL (≈ 0.486 µM) and the MIC [21] was 1 µg/mL (≈ 1.57 µM). It also gave an MIC [22] of 0.031 µg/mL (≈ 0.0486 µM), an MIC [23] of 1 µg/mL (≈ 1.57 µM) and an MIC [24] of 0.13 µg/mL (≈ 0.204 µM). The MIC [25] was no more than 0.008 µg/mL.
